# Data as given in patent publication EP0478101B1, “Therapeutic use of peptides having thrombospondin-like activity” (W.R. Grace & Co.-Conn., priority 1990, dated 1992).
# Positions of bridges follow the written chain, without caps; N, C: chain ends. Residues, ends and D or L forms follow the SMILES beside them. No end group written: not given here.
# What was measured:
# Test in all cases: Cell adhesion to peptide-coated wells compared with thrombospondin
# Format in all cases: cell-based
# Conditions in all cases: two micrograms of peptide dried on well, 200,000 cells per well, 30 minutes at 37°C, relative to thrombospondin
# [1] = test system: A549 Human Lung Adenocarcinoma
# Experimental: (§1) In this example a series of peptides were tested to determine the abilities of the peptides to bind various cells as compared to thrombospondin. It is believed that thrombospondin acts in metastasis through its adhesive properties. An assay was developed, generally in accordance with the disclosure of Tuszynski et al. (Anal. Bio. (1990) 184:189-91) which evaluates the ability of cells to adhere to the thrombospondin fragments or analogs of the invention. In this assay, thrombospondin (purified by the method of Tuszynski et al., J. Biol. Chem. (1985) 260:12240-5) served as a positive control, bovine serum albumin (BSA) (Sigma Chemical Co.) and the peptides ANKHYF and VCTGSC and TCVCGS served as negative controls. The cell types evaluated were B16F10 mouse melanoma cells, A549 human lung adrenocarcinoma cells, bovine aortic smooth muscle cells, and rabbit smooth muscle cells.
# (§2) Thrombospondin analogs of the invention were synthesized as described in Examples 1-4. Two micrograms of peptide or control proteins were air dried overnight on the wells of a 96-well microtiter plate. Wells were then washed with HEPES-buffered saline and blocked for 1 hour with 1% fatty acid free BSA in HEPES-buffered saline.
# (§3) The various cells were grown and harvested during log phase of growth using standard procedures. The harvested cells were washed two times in serum-free Dulbecco's minimum essential medium (DMEM) (Flow Laboratories) and suspended in HEPES-buffered saline, containing 5 mM glucose and 100 µM MgCl2 at a final concentration of […]. Of the cell suspension 200,000 cells per well was added to each well of the microtiter dish containing the various ligands and the dish incubated at 37°C in a CO2 incubator for 30 minutes. Nonadherent cells were removed by aspiration and the wells washed three times with 200 µl of PBS. The total cell-associated protein was determined by dissolving the attached cells directly in the microtiter wells with 200 µl of the Pierce BCA working solution (Pierce Chem. Co. Booklet No. 23225 (1987)). The plate was covered with an adhesive mylar sheet (Flow Labs) and incubated at 60°C for 30 minutes. Plates were allowed to cool to room temperature, cover sheets were removed, and the absorbance of each well was determined at 562 nm with a microtiter plate reader (Biotek, Burlington, Vermont.) Absorbances were converted to number of adherent cells by means of an empirically determined conversion factor.
# B16-F10 Mouse Melanoma = test system: B16-F10 Mouse Melanoma
# Experimental: as §1, §2, §3
# Rabbit Smooth Muscle = test system: Rabbit Smooth Muscle
# Experimental: as §1, §2, §3
# [2] = test system: Bovine Aortic Endothelia 1 Cells
# Experimental: [Worded in the source for another cell line; this cell line is reported under the same test.] as §1, §2, §3
Compound,Percent of TSP-adherent Cells [1],Percent of TSP-adherent Cells (B16-F10 Mouse Melanoma),Percent of TSP-adherent Cells (Rabbit Smooth Muscle),Percent of TSP-adherent Cells [2]
"CC(C)[C@H](NC(=O)[C@H](CCCNC(=N)N)NC(=O)[C@@H](N)CS)C(=O)N[C@H](C(=O)N[C@@H](CS)C(=O)NCC(=O)O)[C@@H](C)O [CRVTCG (SEQ ID NO:5), CRVTCG] (H-CRVTCG-OH)",79%,92%,82%,80%
"C[C@@H](O)[C@H](NC(=O)[C@H](CO)NC(=O)[C@@H](N)CS)C(=O)N[C@@H](CO)C(=O)N[C@@H](CS)C(=O)NCC(=O)O [CSTSCG (SEQ ID NO:4), CSTSCG] (H-CSTSCG-OH)",23%,37%,22%,39%
"C[C@@H](O)[C@H](NC(=O)[C@H](CO)NC(=O)[C@@H](N)CS)C(=O)N[C@@H](CO)C(=O)N[C@@H](CS)C(=O)N[C@@H](CCCNC(=N)N)C(=O)O [CSTSCR (SEQ ID NO:3), CSTSCR] (H-CSTSCR-OH)",104%,39%,82%,65%
"CC(C)[C@H](NC(=O)[C@H](CO)NC(=O)[C@@H](N)CS)C(=O)N[C@H](C(=O)N[C@@H](CS)C(=O)NCC(=O)O)[C@@H](C)O [CSVTCG (SEQ ID NO:1), CSVTCG] (H-CSVTCG-OH)",29%,40%,44%,49%
"CC(C)[C@H](NC(=O)[C@H](CO)NC(=O)[C@@H](N)CS)C(=O)N[C@H](C(=O)N[C@@H](CS)C(=O)N[C@@H](CCCNC(=N)N)C(=O)O)[C@@H](C)O [CSVTCR (SEQ ID NO:2), CSVTCR] (H-CSVTCR-OH)",90%,92%,159%,99%
"CC(C)[C@@H]1NC(=O)[C@H](CO)NC(=O)[C@@H](N)CSSC[C@@H](C(=O)NCC(=O)O)NC(=O)[C@H]([C@@H](C)O)NC1=O [Cyclic CSVTCG (SEQ ID NO:1), cyclic CSVTCG-Acid] (H-CSVTCG-OH; disulfide 1-5)",29%,30%,43%,25%
"CC(C)[C@H](NC(=O)[C@H](CS)NC(=O)[C@@H](N)[C@@H](C)O)C(=O)N[C@@H](CS)C(=O)NCC(=O)N[C@@H](CO)C(=O)O [TCVCGS, reference compound] (H-TCVCGS-OH)",10%,10%,8%,6%
"CC(C)[C@H](N)C(=O)N[C@@H](CS)C(=O)N[C@H](C(=O)NCC(=O)N[C@@H](CO)C(=O)N[C@@H](CS)C(=O)O)[C@@H](C)O [VCTGSC, reference compound] (H-VCTGSC-OH)",8%,2%,17%,3%
"ANKHYF [ANKHYF, reference compound]",10%,8%,17%,0%
"ASVTAR [ASVTAR (SEQ ID NO:7), ASVTAR]",–,39%,–,–
Blocked CSVTCG [Blocked CSVTCG (SEQ ID NO:1)],44%,32%,46%,22%
